According to patent publication EP2264010A1, “Hetarylamidines” (Bayer CropScience AG, priority 2009, dated 2010):

Key:
[1] = logP by HPLC on reversed-phase columns (C 18), EEC Directive 79/831 Annex V.A8; format: physicochemical; settings: c18 reversed-phase hplc, reversed-phase (C 18), read-out: log p
Source text: Die Messung der logP Werte erfolgte gemäß EEC Directive 79/831 Annex V.A8 durch HPLC (High Performance Liquid Chromatography) an reversed-phase Säulen (C 18), mit der nachfolgenden Methode: […]

VERPE [2] = experiment: Herbicidal activity, test type PE; format: in vivo; settings: TEST-TYP PE; for pest or weed control at 320 g/ha: read-out: herbizide Wirkung VERPE; for herbizide Wirkung VERPE: 320 G/HA
SETVI = experiment: Herbicidal activity, test type PE; format: in vivo; settings: TEST-TYP PE; for pest or weed control at 320 g/ha: read-out: herbizide Wirkung SETVI; for herbizide Wirkung SETVI: 320 G/HA
AMARE [3] = experiment: Herbicidal activity, test type PE; format: in vivo; settings: TEST-TYP PE; for pest or weed control at 320 g/ha: Amaranthus retroflexus, read-out: herbizide Wirkung AMARE; for herbizide Wirkung AMARE: 320 G/HA
MATIN = experiment: Herbicidal activity, test type PE; format: in vivo; settings: TEST-TYP PE; for pest or weed control at 320 g/ha: read-out: herbizide Wirkung MATIN
VIOTR [4] = experiment: Herbicidal activity, test type PE; format: in vivo; settings: TEST-TYP PE; for pest or weed control at 320 g/ha: read-out: herbizide Wirkung VIOTR; for herbizide Wirkung VIOTR: 320 G/HA
ALOMY = experiment: Herbicidal activity, test type PE; format: in vivo; settings: TEST-TYP PE, 320 G/HA
LOLMU = experiment: Herbicidal activity, test type PE; format: in vivo; settings: TEST-TYP PE, read-out: herbizide Wirkung LOLMU
STEME = experiment: Herbicidal activity, test type PE; format: in vivo; settings: TEST-TYP PE, read-out: herbizide Wirkung STEME
ECHCG = experiment: Herbicidal activity, test type PE; format: in vivo; settings: TEST-TYP PE, 320 G/HA
AMARE [5] = experiment: Herbicidal activity, test type PO; format: in vivo; settings: TEST-TYP PO, 80 G/HA
VIOTR [6] = experiment: Herbicidal activity, test type PO; format: in vivo; settings: TEST-TYP PO, 80 G/HA
VERPE [7] = experiment: Herbicidal activity, test type PO; format: in vivo; settings: TEST-TYP PO, 80 G/HA
PHBPU = experiment: Herbicidal activity, test type PO; format: in vivo; settings: TEST-TYP PO, 80 G/HA

Compound CC(=Nc1ncc(C)cc1-c1ccc(F)c(C(F)(F)F)c1)N(C)C [compound 20] has a chromatographic logP [1] of 1.3.

CC(C)N(C=Nc1ncc(Cl)cc1-c1ccc(F)c(C(F)(F)F)c1)C(C)C [compound 21] gave a chromatographic logP [1] of 4.19.

With CCN(C)C=Nc1ncc(C)cc1-c1cccc(C(F)(F)F)c1 [compound 32] the pest or weed control at 320 g/ha (VERPE [2]) was 80%, the pest or weed control at 320 g/ha (SETVI) was 90% and the pest or weed control at 320 g/ha (AMARE [3]) was 80%. For the same compound, the pest or weed control at 320 g/ha (MATIN) was 90% and the pest or weed control at 320 g/ha (VIOTR [4]) was 80%.

For CCN(C)C=Nc1ncc(Cl)cc1-c1ccc(F)c(C(F)(F)F)c1 [compound 14], the “herbizide Wirkung ALOMY” value (ALOMY) was 90, the pest or weed control at 320 g/ha (VERPE [2]) was 90% and the pest or weed control at 320 g/ha (SETVI) was 100%. The chromatographic logP [1] was 2.21, the pest or weed control at 320 g/ha (LOLMU) was 100% and the pest or weed control at 320 g/ha (STEME) was 85%. The pest or weed control at 320 g/ha (AMARE [3]) was 90%, the “herbizide Wirkung ECHCG” value (ECHCG) was 80 and the pest or weed control at 320 g/ha (MATIN) was 100%. The pest or weed control at 320 g/ha (VIOTR [4]) was 90%.

In the case of CN(C)C=Nc1ncc(Cl)cc1-c1ccc(F)c(C(F)(F)F)c1 [compound 13], the pest or weed control at 320 g/ha (VERPE [2]) is reported as 80%, the chromatographic logP [1] is reported as 2 and the pest or weed control at 320 g/ha (AMARE [3]) is reported as 80%.

With CCN(C)C=Nc1ncc(-c2cccc(C)c2)cc1C [compound 105] the pest or weed control at 320 g/ha (SETVI) was 80% and the “herbizide Wirkung ECHCG” value (ECHCG) was 80.

For CCN(C=Nc1ncc(C)cc1-c1ccc(Cl)c(C(F)(F)F)c1)CC [compound 7], the chromatographic logP [1] was 1.75.

CCN(C=Nc1ncc(Cl)cc1-c1ccc(Cl)c(C(F)(F)F)c1)CC [compound 11] showed a chromatographic logP [1] of 3.63, a pest or weed control at 320 g/ha (AMARE [3]) of 80% and a pest or weed control at 320 g/ha (VIOTR [4]) of 80%.

For Cc1cnc(N=CN(C(C)C)C(C)C)c(-c2ccc(Cl)c(C(F)(F)F)c2)c1 [compound 8], the chromatographic logP [1] was 2.03.

For CCN(C=Nc1ncc(Cl)cc1-c1ccc(F)c(C(F)(F)F)c1)CC [compound 15], the “herbizide Wirkung AMARE” value (AMARE [5]) was 90, the “herbizide Wirkung VIOTR” value (VIOTR [6]) was 80 and the pest or weed control at 320 g/ha (SETVI) was 80%. The chromatographic logP [1] was 2.59, the “herbizide Wirkung VERPE” value (VERPE [7]) was 80 and the pest or weed control at 320 g/ha (STEME) was 80%. The pest or weed control at 320 g/ha (AMARE [3]) was 80% and the pest or weed control at 320 g/ha (MATIN) was 80%.

With CCN(C)C=Nc1ncc(C)cc1-c1ccc(Cl)c(C(F)(F)F)c1 [compound 127] the “herbizide Wirkung SETVI” value (SETVI) was 90, the pest or weed control at 320 g/ha (AMARE [3]) was 90% and the pest or weed control at 320 g/ha (MATIN) was 80%. For the same compound, the “herbizide Wirkung VIOTR” value (VIOTR [4]) was 80.

CC(=Nc1ncc(Cl)cc1-c1ccc(F)c(C(F)(F)F)c1)N1CCCCC1 [compound 22] showed a chromatographic logP [1] of 1.74.

CC(C)N(C=Nc1ncc(Cl)cc1-c1ccc(Cl)c(C(F)(F)F)c1)C(C)C [compound 12] gave a chromatographic logP [1] of 3.71.

For Fc1ccc(-c2cc(Cl)cnc2N=CN2CCCC2)cc1C(F)(F)F [compound 141], the “herbizide Wirkung SETVI” value (SETVI) was 80 and the pest or weed control at 320 g/ha (AMARE [3]) was 80%.

In the case of CCN(C)C=Nc1ncc(C)cc1-c1ccc(F)c(C(F)(F)F)c1 [compound 18], the pest or weed control at 320 g/ha (VERPE [2]) is reported as 100%, the pest or weed control at 320 g/ha (SETVI) is reported as 90% and the chromatographic logP [1] is reported as 1.48. It also gave a pest or weed control at 320 g/ha (AMARE [3]) of 80% and a pest or weed control at 320 g/ha (VIOTR [4]) of 90%.

Work on FC(F)(F)c1ccc(-c2cc(Cl)cnc2N=CN2CCCC2)cc1Cl [compound 26] yielded a chromatographic logP [1] of 1.98.

With CCN(C)C=Nc1ncc(C)cc1-c1ccc(F)c(C(F)(F)F)c1 [compound 142] the “herbizide Wirkung VERPE” value (VERPE [2]) was 90, the “herbizide Wirkung SETVI” value (SETVI) was 90 and the pest or weed control at 320 g/ha (STEME) was 90%. The “herbizide Wirkung AMARE” value (AMARE [3]) was 80 and the pest or weed control at 320 g/ha (MATIN) was 80%.

CCN(C)C=Nc1ncc(-c2ccc(Cl)c(C(F)(F)F)c2)cc1C [compound 58] showed a pest or weed control at 320 g/ha (VERPE [2]) of 90%, a pest or weed control at 320 g/ha (SETVI) of 90% and a pest or weed control at 320 g/ha (AMARE [3]) of 90%. For the same compound, the “herbizide Wirkung ECHCG” value (ECHCG) was 90 and the pest or weed control at 320 g/ha (MATIN) was 80%.

For CCN(C)C=Nc1ncc(-c2ccc(Cl)c(C(F)(F)F)c2)cc1C [compound 175], the “herbizide Wirkung VERPE” value (VERPE [2]) was 90, the “herbizide Wirkung AMARE” value (AMARE [3]) was 80 and the “herbizide Wirkung ECHCG” value (ECHCG) was 90.

For Cc1cc(-c2ccc(F)c(C(F)(F)F)c2)cnc1N=CN(C)C [compound 181], the “herbizide Wirkung PHBPU” value (PHBPU) was 90, the “herbizide Wirkung AMARE” value (AMARE [5]) was 80 and the “herbizide Wirkung VERPE” value (VERPE [7]) was 80. For the same compound, the “herbizide Wirkung AMARE” value (AMARE [3]) was 100, the “herbizide Wirkung MATIN” value (MATIN; 320 G/HA) was 90 and the “herbizide Wirkung VIOTR” value (VIOTR [4]) was 90.

In the case of Cc1cc(-c2cccc(Cl)c2)cnc1N=CN(C)C [compound 102], the pest or weed control at 320 g/ha (SETVI) is reported as 90%, the pest or weed control at 320 g/ha (LOLMU) is reported as 80% and the pest or weed control at 320 g/ha (MATIN) is reported as 90%. It also gave a pest or weed control at 320 g/ha (VIOTR [4]) of 80%.
